# Data: US7138361B2, “Herbicidal heterocycles” (E. I. du Pont de Nemours and Company, priority 2000, dated 2006)
# Key:
# Format in all cases: in vivo
# [1] = tested on: Surinam grass (Brachiaria decumbens); assay: Test C preemergence; settings: for Plant response rating (0 to 100), Surinam grass: visual evaluation after 12 to 14 days
# Outline: (§1)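 Formulation: non-phytotoxic solvent mix incl. surfactant. Pre: applied right after planting. Post: 1–4-leaf seedlings. Read: visual 0–100, day 12–14, greenhouse.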
# [2] = tested on: crabgrass (Digitaria sanguinalis); assay: Test C preemergence; settings: for Plant response rating (0 to 100), Crabgrass: visual evaluation after 12 to 14 days
# Outline: as §1
# soybean (Glycine max) = assay: Test C preemergence
# Outline: as §1
# [3] = tested on: pigweed (Amaranthus retroflexus); assay: Test C preemergence
# Outline: as §1
# Nightshade = assay: Test C preemergence
# [4] = tested on: goosegrass (Eleusine indica); assay: Test C preemergence; settings: for Plant response rating (0 to 100), Goosegrass: visual evaluation after 12 to 14 days
# Outline: as §1
# [5] = tested on: common ragweed (Ambrosia elatior); assay: Test C preemergence
# Outline: as §1
# [6] = tested on: cocklebur (Xanthium strumarium); assay: Test C preemergence; settings: for Plant response rating (0 to 100), Cocklebur: visual evaluation after 12 to 14 days
# Outline: as §1
# [7] = tested on: woolly cupgrass (Eriochloa villosa); assay: Test C preemergence; settings: for Plant response rating (0 to 100), Cupgrass, Woolly: visual evaluation after 12 to 14 days
# Outline: as §1
# [8] = tested on: Surinam grass (Brachiaria decumbens); assay: Test B preemergence
# Outline: (§2)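 Pre: seeded pots sprayed, chemical in non-phytotoxic solvent/surfactant mix. Post: plants 2–18 cm, 1–4 leaf, same formulation. Greenhouse 13–15 d; visual % control vs untreated, 0–100 scale.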
# corn (Zea mays) = assay: Test B preemergence
# Outline: as §2
# [9] = tested on: velvetleaf (Abutilon theophrasti); assay: Test B preemergence
# Outline: as §2
# [10] = tested on: barnyardgrass (Echinochloa crus-galli); assay: Test B preemergence
# Outline: as §2
# [11] = tested on: crabgrass (Digitaria sanguinalis); assay: Test B preemergence
# Outline: as §2
# rice (Oryza saliva) = assay: Test B preemergence
# Outline: as §2
# [12] = tested on: giant foxtail (Setaria faberii); assay: Test B preemergence
# Outline: as §2
# [13] = tested on: pigweed (Amaranthus retroflexus); assay: Test B preemergence
# Outline: as §2
# [14] = tested on: lambsquarters (Chenopodium album); assay: Test B preemergence
# Outline: as §2
# [15] = tested on: morning glory (Ipomoea hederacea); assay: Test B preemergence
# Outline: as §2
# [16] = tested on: cocklebur (Xanthium strumarium); assay: Test B preemergence
# Outline: as §2
# [17] = Rate 62 g/ha, scale 0 to 100, 0 no effect, 100 complete control
# [18] = Rate 125 g/ha, scale 0 to 100, 0 no effect, 100 complete control
# [19] = preemergence, Rate 31 g/ha, scale 0 to 100
# [20] = preemergence, Rate 250 g/ha, scale 0 to 100, 0 no effect, 100 complete control
# [21] = Rate 62 g/ha; scale 0 to 100, 0 no effect, 100 complete control
# [22] = Rate 250 g/ha, scale 0 to 100, 0 no effect, 100 complete control
# [23] = Preemergence, Rate 500 g/ha, scale 0 to 100, 0 no effect, 100 complete control
# [24] = preemergence, Rate 125 g/ha, scale of 0 to 100 where 0 is no effect and 100 is complete control, 13 to 15 days
# [25] = preemergence, Rate 125 g/ha, scale 0 to 100, 0 no effect, 100 complete control
# [26] = preemergence, Rate 500 g/ha, visual evaluation after 12 to 14 days
compound,measurement,setting,value
COC(=O)c1cccc(N2CCC(n3ccc(C(C)(C)C)n3)C2=O)c1 (stereo not drawn) [Compound 73],"Plant response rating, Surinam grass",[1]; [17],50
same,"Plant response rating, Surinam grass",[1]; [18],70
same,"Plant response rating, Surinam grass",[1]; [19],20
same,"Plant response rating (0 to 100), Surinam grass","[1]; preemergence, Rate 250 g/ha",70
same,"Plant response rating, Crabgrass",[2]; [17],90
same,"Plant response rating, Crabgrass",[2]; [18],100
same,"Plant response rating, Crabgrass",[2]; [19],90
same,"Plant response rating (0 to 100), Crabgrass","[2]; preemergence, Rate 250 g/ha",100
same,"Plant response rating, Soybean",soybean (Glycine max); [18],40
same,"Plant response rating, Soybean",soybean (Glycine max); [19],0
same,"Plant response rating, Soybean",soybean (Glycine max); [20],70
same,"Plant response rating, Pigweed",[3]; [18],0
same,"Plant response rating, Pigweed",[3]; [19],0
same,"Plant response rating, Pigweed",[3]; [20],40
same,"Plant response rating, Nightshade","Nightshade; Rate 31 g/ha, scale 0 to 100",50
same,"Plant response rating, Nightshade",Nightshade; [21],60
same,"Plant response rating, Nightshade","Nightshade; Rate 125 g/ha; scale 0 to 100, 0 no effect, 100 complete control",80
same,"Plant response rating, Nightshade",Nightshade; [22],100
same,"Plant response rating, Goosegrass",[4]; [17],80
same,"Plant response rating, Goosegrass",[4]; [18],100
same,"Plant response rating, Goosegrass",[4]; [19],60
same,"Plant response rating (0 to 100), Goosegrass","[4]; preemergence, Rate 250 g/ha",100
same,"Plant response rating, Ragweed, Common",[5]; [18],80
same,"Plant response rating, Ragweed, Common",[5]; [19],30
same,"Plant response rating, Ragweed, Common",[5]; [20],100
same,"Plant response rating, Cocklebur",[6]; [17],70
same,"Plant response rating, Cocklebur",[6]; [19],20
same,"Plant response rating (0 to 100), Cocklebur","[6]; preemergence, Rate 250 g/ha",80
same,"Plant response rating, Cupgrass, Woolly",[7]; [17],60
same,"Plant response rating, Cupgrass, Woolly",[7]; [18],80
same,"Plant response rating, Cupgrass, Woolly",[7]; [19],20
same,"Plant response rating (0 to 100), Cupgrass, Woolly","[7]; preemergence, Rate 250 g/ha",100
same,"Plant response rating, Surinam grass",[8]; [23],90
same,"Plant response rating, Surinam grass",[8]; [24],50
same,"Plant response rating, Corn",corn (Zea mays); [23],30
same,"Plant response rating, Corn",corn (Zea mays); [24],0
same,"Plant response rating, Velvetleaf",[9]; [23],100
same,"Plant response rating, Velvetleaf",[9]; [24],90
same,"Plant response rating, Barnyardgrass",[10]; [23],100
same,"Plant response rating, Barnyardgrass",[10]; [24],100
same,"Plant response rating, Crabgrass",[11]; [23],100
same,"Plant response rating, Crabgrass",[11]; [24],100
same,"Plant response rating, Rice",rice (Oryza saliva); [23],40
same,"Plant response rating, Rice",rice (Oryza saliva); [24],30
same,"Plant response rating, Foxtail, Giant",[12]; [23],100
same,"Plant response rating, Foxtail, Giant",[12]; [24],100
same,"Plant response rating, Pigweed",[13]; [23],100
same,"Plant response rating, Pigweed",[13]; [24],100
same,"Plant response rating, Lambsquarters",[14]; [23],100
same,"Plant response rating, Lambsquarters",[14]; [24],100
same,"Plant response rating, Morningglory",[15]; [23],100
same,"Plant response rating, Morningglory",[15]; [24],0
same,"Plant response rating, Cocklebur",[16]; [23],90
same,"Plant response rating, Cocklebur",[16]; [24],0
CC1(c2ccn(C3SCN(c4cccc(OC(F)(F)F)c4)C3=O)n2)CC1 (stereo not drawn) [Compound 63],"Plant response rating, Surinam grass",[1]; [17],20
same,"Plant response rating (0 to 100), Surinam grass","[1]; preemergence, Rate 250 g/ha",70
same,"Plant response rating (0 to 100), Surinam grass","[1]; preemergence, Rate 500 g/ha",100
same,"Plant response rating, Surinam grass",[1]; [25],20
same,"Plant response rating, Crabgrass",[2]; [17],100
same,"Plant response rating (0 to 100), Crabgrass","[2]; preemergence, Rate 250 g/ha",100
same,"Plant response rating (0 to 100), Crabgrass","[2]; preemergence, Rate 500 g/ha",100
same,"Plant response rating, Crabgrass",[2]; [25],100
same,"Plant response rating (0 to 100), Soybean",soybean (Glycine max); [26],40
same,"Plant response rating, Soybean",soybean (Glycine max); [25],0
same,"Plant response rating, Soybean",soybean (Glycine max); [20],0
same,"Plant response rating (0 to 100), Pigweed",[3]; [26],100
same,"Plant response rating, Pigweed",[3]; [25],100
same,"Plant response rating, Pigweed",[3]; [20],100
same,"Plant response rating, Nightshade",Nightshade; [21],30
same,"Plant response rating, Nightshade",Nightshade; [18],60
same,"Plant response rating, Nightshade",Nightshade; [22],60
same,"Plant response rating, Goosegrass",[4]; [17],100
same,"Plant response rating (0 to 100), Goosegrass","[4]; preemergence, Rate 250 g/ha",100
same,"Plant response rating (0 to 100), Goosegrass","[4]; preemergence, Rate 500 g/ha",100
same,"Plant response rating, Goosegrass",[4]; [25],100
same,"Plant response rating (0 to 100), Ragweed, Common",[5]; [26],90
same,"Plant response rating, Ragweed, Common",[5]; [25],50
same,"Plant response rating, Ragweed, Common",[5]; [20],50
same,"Plant response rating, Cocklebur",[6]; [17],0
same,"Plant response rating (0 to 100), Cocklebur","[6]; preemergence, Rate 250 g/ha",30
same,"Plant response rating (0 to 100), Cocklebur","[6]; preemergence, Rate 500 g/ha",30
same,"Plant response rating, Cocklebur",[6]; [25],0
same,"Plant response rating, Cupgrass, Woolly",[7]; [17],20
same,"Plant response rating (0 to 100), Cupgrass, Woolly","[7]; preemergence, Rate 250 g/ha",60
same,"Plant response rating (0 to 100), Cupgrass, Woolly","[7]; preemergence, Rate 500 g/ha",100
same,"Plant response rating, Cupgrass, Woolly",[7]; [25],60
same,"Plant response rating, Surinam grass",[8]; [23],30
same,"Plant response rating, Surinam grass",[8]; [24],0
same,"Plant response rating, Corn",corn (Zea mays); [23],0
same,"Plant response rating, Corn",corn (Zea mays); [24],0
same,"Plant response rating, Velvetleaf",[9]; [23],0
same,"Plant response rating, Velvetleaf",[9]; [24],0
same,"Plant response rating, Barnyardgrass",[10]; [23],90
same,"Plant response rating, Barnyardgrass",[10]; [24],50
same,"Plant response rating, Crabgrass",[11]; [23],100
same,"Plant response rating, Crabgrass",[11]; [24],0
same,"Plant response rating, Rice",rice (Oryza saliva); [23],0
same,"Plant response rating, Rice",rice (Oryza saliva); [24],0
same,"Plant response rating, Foxtail, Giant",[12]; [23],90
same,"Plant response rating, Foxtail, Giant",[12]; [24],50
same,"Plant response rating, Pigweed",[13]; [23],100
same,"Plant response rating, Pigweed",[13]; [24],100
same,"Plant response rating, Lambsquarters",[14]; [23],100
same,"Plant response rating, Lambsquarters",[14]; [24],100
same,"Plant response rating, Morningglory",[15]; [23],0
same,"Plant response rating, Morningglory",[15]; [24],0
same,"Plant response rating, Cocklebur",[16]; [23],0
same,"Plant response rating, Cocklebur",[16]; [24],0
